Patent US10865384B2, “2,4,5-tri-substituted azole-based casein kinase 1 inhibitors as inducers for cardiomyogenesis” (AGENCY FOR SCIENCE, TECHNOLOGY AND RESEARCH, priority 2014, dated 2020)

What was measured:
p38β MAPK = p38β MAPK (Homo sapiens (Human), UniProt Q15759); conditions: read-out: IC50 (published by companies), p38β MAPK inhibition; cited from earlier work
p38α MAPK = conditions: read-out: IC50 (published by companies), p38α MAPK inhibition; cited from earlier work
H3 hESCs Nkx2.5eGFP/w = assay: High yield cardiomyocyte differentiation after 24 h CHIR99021 pre-treatment; type: cell-based, human
CK1 = conditions: read-out: IC50 (published by companies), CK1 inhibition; cited from earlier work
PKD1 = PKD1 (Homo sapiens (Human), UniProt Q15139); conditions: read-out: IC50 (published by companies), PKD1 inhibition; cited from earlier work
[1] = CHIR99021 only, CHIR99021 with SB203580 (days 1-8), CHIR99021 with IM-31 (days 4-8)

PKD1, sequence (Q15139 whole entry): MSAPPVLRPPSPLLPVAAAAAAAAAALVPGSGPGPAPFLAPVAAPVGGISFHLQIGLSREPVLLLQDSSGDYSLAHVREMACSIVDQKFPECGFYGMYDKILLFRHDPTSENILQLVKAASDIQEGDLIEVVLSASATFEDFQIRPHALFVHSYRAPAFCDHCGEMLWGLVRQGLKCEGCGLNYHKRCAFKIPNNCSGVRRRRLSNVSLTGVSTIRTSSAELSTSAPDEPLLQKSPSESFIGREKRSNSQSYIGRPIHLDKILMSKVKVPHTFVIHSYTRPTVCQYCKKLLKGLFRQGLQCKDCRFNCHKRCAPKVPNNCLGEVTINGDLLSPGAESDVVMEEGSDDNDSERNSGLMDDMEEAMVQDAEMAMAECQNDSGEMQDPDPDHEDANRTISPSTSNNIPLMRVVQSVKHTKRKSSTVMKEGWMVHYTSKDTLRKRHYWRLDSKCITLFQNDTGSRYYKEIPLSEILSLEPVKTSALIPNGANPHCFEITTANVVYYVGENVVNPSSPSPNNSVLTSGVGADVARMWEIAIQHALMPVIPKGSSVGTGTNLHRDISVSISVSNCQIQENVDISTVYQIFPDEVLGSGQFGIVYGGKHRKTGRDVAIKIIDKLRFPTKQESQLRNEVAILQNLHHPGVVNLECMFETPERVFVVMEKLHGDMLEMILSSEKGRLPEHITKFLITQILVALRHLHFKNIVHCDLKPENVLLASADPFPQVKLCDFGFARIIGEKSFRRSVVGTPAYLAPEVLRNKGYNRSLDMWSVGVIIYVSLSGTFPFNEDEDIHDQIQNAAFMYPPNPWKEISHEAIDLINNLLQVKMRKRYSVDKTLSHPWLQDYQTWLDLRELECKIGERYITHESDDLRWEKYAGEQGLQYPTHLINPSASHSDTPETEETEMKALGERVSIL
p38β MAPK, sequence (Q15759 whole entry): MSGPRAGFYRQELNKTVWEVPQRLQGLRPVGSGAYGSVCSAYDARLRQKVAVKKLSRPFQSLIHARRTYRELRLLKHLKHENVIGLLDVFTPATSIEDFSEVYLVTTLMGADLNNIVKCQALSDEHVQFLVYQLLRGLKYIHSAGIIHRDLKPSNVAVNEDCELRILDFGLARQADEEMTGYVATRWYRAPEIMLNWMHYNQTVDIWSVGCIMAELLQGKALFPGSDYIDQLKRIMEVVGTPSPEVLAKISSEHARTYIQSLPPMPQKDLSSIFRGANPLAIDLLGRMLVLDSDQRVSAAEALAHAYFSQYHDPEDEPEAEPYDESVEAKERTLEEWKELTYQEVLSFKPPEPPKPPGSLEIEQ

Row | SMILES | IC50 (p38β MAPK) [nM] | IC50 (p38α MAPK) [nM] | Average beating frequency (H3 hESCs Nkx2.5eGFP/w; [1]) | Beat count (percentage of EBs contracting within 10 s) (H3 hESCs Nkx2.5eGFP/w; [1]) | Beating area (H3 hESCs Nkx2.5eGFP/w; [1]) [mm^2] | Nkx2.5 population (H3 hESCs Nkx2.5eGFP/w; day 11, flow cytometry, 3 μM CHIR99021 for 24 h) [%] | IC50 (CK1) [nM] | IC50 (PKD1) [nM]
1 | Cc1c[nH]c(-c2cnc(NCCNc3ccc(C#N)cn3)nc2-c2ccc(Cl)cc2Cl)n1 [CHIR99021] | 6.7 | 10 | 25-30 beats per minute | over 75% | > 5 | 30 |  | 
2 | NC(=O)c1ccc(-c2nc(-c3ccc4c(c3)OCCO4)c(-c3ccccn3)[nH]2)cc1 [Compound D4476] |  | 5800 |  |  |  |  | […] | 9100
